Assay results as given in article PMC6747323, “Discovery of Novel Angiotensin-Converting Enzyme Inhibitory Peptides from Todarodes pacificus and Their Inhibitory Mechanism: In Silico and In Vitro Studies” (International Journal of Molecular Sciences, 2019).
Ends that are not written are not given here. Peptide text beside a SMILES is read from it.

Tested on: ACE
Assay: not given
Settings: from porcine skeletal muscle hydrolysate; cited from earlier work

| Compound | pIC50 (ACE inhibition) |
| --- | --- |
| Met-Asn-Pro-Pro-Lys (MNPPK; printed: Met-Asn-Pro-Pro-Lys) | 3.02 |

Same assay, conditions: peptide derived from catfish myofibrillar protein; cited from earlier work

| Compound | IC50 (ACE inhibition) |
| --- | --- |
| Ile-Glu-Lys-Pro (IEKP; printed: Ile-Glu-Lys-Pro) | 2.1 µg/mL |

Same assay, conditions: β-casein fragment; cited from earlier work

| Compound | ACE inhibitory activity in vitro |
| --- | --- |
| KVLPVPQ | relatively weak |

Tested on: ACE
Assay: not given
Design: method as in AHTpin and BIOPEP-UWM databases
Settings: Table S1, plant proteases without PREP; ref AHTpin and BIOPEP-UWM databases; cited from earlier work

| Compound | pIC50 |
| --- | --- |
| Asp-Gly [DG] | 5.67 |
| Pro-Pro-Lys [PPK] | 3.00 |
| Glu-Gly [EG] | 2.00 |
| Trp-Leu [WL] | 4.52 |
| Ser-Thr [ST] | 5.39 |
| Met-Phe [MF] | 6.04 |
| Ile-Leu | 4.26 |
| Ile-Tyr [IY] | 5.68 |
| Ala-Phe [AF] | 3.78 |
| Ile-Arg [IR] | 3.16 |
| Met-Tyr [MY] | 3.71 |
| Ala-Tyr [AY] | 4.85 |
| Glu-Tyr [EY] | 5.57 |
| Gln-Lys [QK] | 3.05 |
| Asn-Tyr [NY] | 4.49 |
| Pro-Leu [PL] | 3.47 |
| Ala-His [AH] | 3.28 |
| Thr-Phe [TF] | 4.74 |
| Ala-Ser-Leu [ASL] | 3.99 |
| Asp-Tyr [DY] | 4.00 |
| Met-Gly [MG] | 2.32 |
| Glu-Trp [EW] | 3.86 |
| Ala-Gly [AG] | 2.60 |
| Asn-Gly [NG] | 1.92 |
| Val-Phe [VF] | 5.04 |
| Ser-Phe [SF] | 3.89 |
| Ile-Phe [IF] | 4.18 |
| Val-Ala-Phe [VAF] | 4.45 |
| Ser-Gly [SG] | 2.07 |

Same assay, conditions: Table S2, plant proteases with PREP; ref AHTpin and BIOPEP-UWM databases; cited from earlier work

| Compound | pIC50 |
| --- | --- |
| Val-Pro [VP] | 3.38 |
| Thr-Pro [TP] | 3.54 |
| Ala-Val-Pro [AVP] | 3.47 |
| Ala-Pro [AP] | 4.54 |
| Ala-Ile-Pro [AIP] | 3.46 |
| Lys-Pro [KP] | 4.66 |

Target: T1, ACE from rabbit lungs (Oryctolagus cuniculus, UniProt P12822)
T1 construct: The ACE from rabbit lungs; purchased Sigma Chemical Company (St. Louis, MO, USA); host or cells: rabbit lung tissue
T1 sequence (P12822 34-1310): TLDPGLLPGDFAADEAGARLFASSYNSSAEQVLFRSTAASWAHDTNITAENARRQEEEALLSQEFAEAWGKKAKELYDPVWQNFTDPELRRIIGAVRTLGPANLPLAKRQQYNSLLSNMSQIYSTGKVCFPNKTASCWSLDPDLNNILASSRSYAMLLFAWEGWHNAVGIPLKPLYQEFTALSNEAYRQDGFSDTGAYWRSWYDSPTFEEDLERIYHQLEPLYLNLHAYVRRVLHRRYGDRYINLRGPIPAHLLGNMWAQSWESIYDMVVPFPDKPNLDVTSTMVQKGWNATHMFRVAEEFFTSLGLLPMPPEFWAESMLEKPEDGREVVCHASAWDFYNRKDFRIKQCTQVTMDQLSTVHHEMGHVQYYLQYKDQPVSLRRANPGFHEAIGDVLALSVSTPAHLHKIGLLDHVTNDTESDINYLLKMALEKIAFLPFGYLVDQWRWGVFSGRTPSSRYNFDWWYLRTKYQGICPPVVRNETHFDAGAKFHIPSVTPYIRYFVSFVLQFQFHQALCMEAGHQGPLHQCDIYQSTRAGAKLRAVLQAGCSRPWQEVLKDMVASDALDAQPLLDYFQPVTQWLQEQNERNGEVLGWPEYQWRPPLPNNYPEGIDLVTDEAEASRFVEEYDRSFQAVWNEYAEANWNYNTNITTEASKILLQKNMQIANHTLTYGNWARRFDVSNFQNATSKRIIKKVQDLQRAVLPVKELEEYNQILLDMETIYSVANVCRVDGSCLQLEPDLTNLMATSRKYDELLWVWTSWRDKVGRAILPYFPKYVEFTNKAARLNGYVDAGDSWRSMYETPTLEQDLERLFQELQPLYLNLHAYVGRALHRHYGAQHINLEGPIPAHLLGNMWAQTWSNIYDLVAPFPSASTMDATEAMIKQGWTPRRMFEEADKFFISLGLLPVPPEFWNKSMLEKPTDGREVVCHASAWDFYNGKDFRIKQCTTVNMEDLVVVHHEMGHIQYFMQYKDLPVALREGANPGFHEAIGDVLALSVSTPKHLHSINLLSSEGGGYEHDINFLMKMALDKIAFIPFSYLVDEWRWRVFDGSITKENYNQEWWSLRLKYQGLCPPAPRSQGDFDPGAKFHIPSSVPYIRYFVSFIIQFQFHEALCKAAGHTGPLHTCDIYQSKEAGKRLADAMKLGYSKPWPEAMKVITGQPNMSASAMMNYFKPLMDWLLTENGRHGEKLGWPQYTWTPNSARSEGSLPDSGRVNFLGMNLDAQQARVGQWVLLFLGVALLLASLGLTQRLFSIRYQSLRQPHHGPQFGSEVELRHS
Assay: In vitro ACE inhibitory activity (HHL substrate, hippuric acid by UPLC)
Format: biochemical
Settings: synthesized new peptides, read-out: pIC50 (ACE inhibition) (converted)
Excerpt: The tested peptides from t hmyosin heavy chain in Todarodes pacificus were provided by Anhui Guoping Pharmaceutical Co., Ltd. (Hefei, China). The ACE from rabbit lungs, hippuryl-histidyl-leucine (HHL), and hippuric acid (HA) were purchased from the Sigma Chemical Company (St. Louis, MO, USA). The solvents for high performance liquid chromatography (HPLC) including acetonitrile and trifluoroacetic acid (TFA) were provided by Merck (Darmstadt, Germany). All the other reagents and chemicals used were of analytical grade.
The ACE inhibitory activity analysis was performed based on Yu et al. with some modifications. HHL was dissolved in 100 mM sodium borate buffer (pH 8.3) to achieve a final concentration of 5.8 mM. A reaction mixture containing 50 μL of ACE solution (100 mU/mL) and 100 μL of sample were pre-incubated at 37 °C for 5 min. Subsequently, 150 μL HHL was added and the mixture was incubated at 37 °C for 60 min. The reaction was terminated by the addition of 200 μL of 0.1 M HCl. […] The amount of HA was determined via an ultra-performance liquid chromatography on a Waters Acquity UPLC BEH C18 column (1.7 μm, 2.1 mm × 100 mm). […] The degree of ACE inhibition was calculated as follows:(1) ACE inhibition activity (%)=A−B/A×100% where A was the HA concentration of a reaction containing ACE without peptide, B was the HA concentration of a reaction in the presence of ACE and peptide. […]

| IC50 | Compound |
| --- | --- |
| 38.9 µM | NCCCC[C@H](NC(=O)[C@@H]1CCCN1C(=O)[C@@H]1CCCN1C(=O)[C@@H](N)CC(N)=O)C(=O)O [NPPK, Asn-Pro-Pro-Lys] (H-NPPK-OH) |

Tested on: spontaneously hypertensive rats
Assay: not given
Design: method as in PMID 28102435
Settings: cited from earlier work

| Compound | Antihypertensive effect |
| --- | --- |
| KVLPVPQ | effective |
